Assay results: patent publication US7601717B2, “Pterin analogs” (BioMarin Pharmaceutical Inc., priority 2008, dated 2009)

Tests used:
Type in all cases: in vitro ADME
Conditions in all cases: over a 60 minute period, compound remaining
[1] = Stability in human plasma
Method: (§1) The stability of various compounds as disclosed herein was tested in human and rat and in simulated gastric fluid. Each compound was tested over an hour period for concentration of the compound remaining at each time point. The results are shown in FIGS. 3 (human plasma stability), 4 (rat plasma stability), and 5 (simulated gastric fluid stability) for the compounds of Example 2, 3, 4, and 20.

[2] = Stability in simulated gastric fluid
Method: as §1

Stability in rat plasma = test: Stability in rat plasma
Method: as §1

CCC(=O)O[C@@H]([C@H](C)OC(=O)CC)[C@H]1CNc2nc(N)[nH]c(=O)c2N1C(=O)CC [Example 3, Propionic acid 1-(2-amino-4-oxo-5-propionyl-3,4,5,6,7,8-hexahydro-pteridin-6-yl)-2-Propionyloxy-propyl ester]
high level of stability: stability in human plasma [1] | stability in simulated gastric fluid [2] | stability in rat plasma (Stability in rat plasma)

CCCC(=O)O[C@@H]([C@H](C)OC(=O)CCC)[C@H]1CNc2nc(N)[nH]c(=O)c2N1C(=O)CCC [Example 4, Butyric acid 1-(2-amino-5-butyryl-4-oxo-3,4,5,6,7,8-hexahydro-pteridin-6-yl)-2-butyryloxy-propyl ester]
high level of stability: stability in human plasma [1] | stability in simulated gastric fluid [2] | stability in rat plasma (Stability in rat plasma)
